pIC50: −log10 of the molar value. Where two headings read alike, the source gives them in different places.
Assays:
[1] = biological target: T1, human dopamine receptor D2 (DRD2) (Homo sapiens, UniProt P14416); test: Dopamine receptor D2 inhibition assay (SRE-luciferase reporter in HEK293T cells); format: cell-based; conditions: for inhibition of DRD2 signaling: 10 μM for 3 hours
T1 construct: expressed in transfected cells; host or cells: HEK293T (pcDNA3 vectors)
Description: (§1) The human dopamine receptor D2 (DRD2) and modified murine Gq5i cDNAs were inserted into pcDNA3 expression vectors. After verifying the PCR products by DNA sequencing, DRD2, Gq5i and the PathDetect pSRE-Luc Cis-Reporter Plasmid (#219080, Agilent Technologies) were transfected to HEK293T cells. As previously reported, Gq5i enables Gi/o-coupled receptor activity to be detected using a serum response element (SRE)-luciferase reporter gene (See, Conklin et al., Nature 363(6426):274-6 (1993); Al-Fulaij et al., J. Pharmacol. Exp. Ther. 321(1):298-307 (2007)). These cells were starved in FCS-free DMEM medium for six hours before incubating them with 2 μM dopamine hydrochloride (Sigma Aldrich) together with each of the compound at 0, 0.5, 1, 2 and 4 μM for three hours. The reporter activity was measured using Pierce™ Firefly Luciferase Glow Assay Kit (Thermo Fisher Scientific).
(§2) For IC50 calculation, KOPT-K1 cells were treated with each of the compounds at various concentrations for 72 hours, followed by the determination of viable cell numbers with PrestoBlue® cell viability reagent. For the PP2A phosphatase activity assay, KOPT-K1 cells were treated with each of the compounds at 10 μM for 3 hours before phosphatase activity was measured. Dopamine D2 receptor activity was monitored in HEK293T cells coexpressing the dopamine D2 receptor, modified G protein and SRE luciferase reporter. Cells were treated with each of the compound at 10 μM for 3 hours, then lysed for the luciferase reporter assay.
as §1, with “D2” for “D2 (DRD2)”, “363(6426):274-276” for “363(6426):274-6”, “0.5” for “0, 0.5, 1, 2 and 4”

KOPT-K1 cells [2] = test: KOPT-K1 cell viability (PrestoBlue), IC50 after 72 hours; format: cell-based, human; conditions: for pIC50: 72 hours, PrestoBlue, read-out: IC50 value against KOPT-K1 cells
Description: as §2
(§3) For IC50 calculations, KOPT-K1 cells were treated with each of the compound at various concentrations for 72 hours, then their viability was examined by PrestoBlue® Cell Viability Reagent (Thermo Fisher Scientific). For PP2A phosphatase activity assay, KOPT-K1 cells were treated with each of the compound at 10 μM for three hours before the activity of PP2A was quantified using PP2A Immunoprecipitation Phosphatase Assay Kit (Merck Millipore®). DRD2 activity was monitored in HEK293T cells expressing DRD2, modified G protein and SRE luciferase reporter. Cells were treated with each of the compounds at 10 μM for three hours, then lysed for luciferase reporter assay. […] The biochemical assays were performed as indicated in Examples 7 and 8.

PP2A [3] = biological target: T2, PP2A (Homo sapiens, UniProt P30153+P67775+Q16537); test: PP2A phosphatase activity in treated KOPT-K1 cells; format: cell-based; conditions: KOPT-K1, 10 μM for 3 hours
T2 construct: are endogenously expressed by KOPTK1 cells; endogenous in cells; host or cells: KOPT-K1 T-ALL cells / lysates
Description: (§4) Data are presented as means±s.d. (n=3, biological replicates). KO; knock out. **P<0.01, ***P<0.001 by student's t-test.
as §2
as §3, with “For PP2A phosphatase activity assay, KOPT-K1 cells were treated with each of the compound at 10 μM for three hours before the activity of PP2A was quantified using PP2A Immunoprecipitation Phosphatase Assay Kit (Merck Millipore®).” left out

PP2A subunits = test: Co-immunoprecipitation of PP2A subunits (holoenzyme assembly); set-up: species or system human; conditions: KOPT-K1 cells, 10 μM, 24 hours
Description: The biochemical activity of iPAP1 was further characterized by addressing whether it acts exclusively on the three identified subunits to mediate the assembly of PP2A, or whether other proteins expressed by T-ALL cells are also required. Using baculovirus vectors, each subunit of PP2A was first expressed with a C-terminal tag in Hi5 insect cells, and then purified the subunit proteins using columns with antibodies against the tags bound to agarose beads (see, Example 5, FIG. 13-FIG. 14). […] PP2A is a unique enzyme consisting of three subunits and it needs to be properly assembled into a holoenzyme before it mediates phosphatase activity. […] The protein lysates were then immunoprecipitated with anti-PPP2CA antibody or normal IgG as a control, and the precipitates were immunoblotted with antibodies specifically detecting each of the PP2A subunits. […] Nuclear and cytoplasmic fractions were separated using NE-PER™ Nuclear and Cytoplasmic Extraction Kit (Thermo Fisher Scientific), and each of the subunits of PP2A was analyzed by western blot. Histone H3 and α tubulin expression levels were used as loading controls for nuclear and cytoplasmic fractions, respectively. […] Lysates were immunoprecipitated using an anti-PPP2CA antibody, and then blotted with antibodies specific for each PP2A subunit. […] The results of a co-immunoprecipitation assay using an anti-PPP2CA antibody for immunoprecipitation in KOPT-K1 cells treated with SMAP at 10 μM or control DMSO for 24 hours before they were lysed for protein extraction are illustrated in FIG. 9B. Lysates were immunoprecipitated using an anti-PPP2CA antibody, and then blotted with antibodies specific for each PP2A subunit.

PP2A [4] = test: PP2A phosphatase activity in treated KOPT-K1 cells; format: cell-based, human; conditions: KOPT-K1 cells, 10 μM
Description: as §4, §2
as §3, with “For PP2A phosphatase activity assay, KOPT-K1 cells were treated with each of the compound at 10 μM for three hours before the activity of PP2A was quantified using PP2A Immunoprecipitation Phosphatase Assay Kit (Merck Millipore®).” left out

KOPT-K1 cells [5] = test: Cell cycle status by PI flow cytometry; format: cell-based, human; conditions: 10 μM and 20 μM, 24 hours
Description: Relative DNA content of cells in each of the samples was determined by measuring PI (propidium iodide) staining using flow cytometry. The results are illustrated in FIG. 31A-FIG. 31B.
Relative DNA content of cells in each of the samples was determined as described above.

[6] = tested on: KOPT-K1 cells with PP2A subunit inactivation; test: Drug sensitivity of KOPT-K1 sublines with CRISPR-Cas9 PP2A subunit knockout; format: cell-based, human; conditions: SMAP 5 μM, 72 hours
Description: Two gRNAs with different target sequences were designed for each subunit (#1 and #2). Control gRNAs target luciferase gene. […] Data are presented as means±s.d. (n=3-5, biological replicates). ***P<0.001 by Student's t-test (FIG. 3A).
SMAP sensitivity in KOPT-K1 cells was measured after PP2A subunit inactivation. Only each subunit of PP2A was knocked out by CRISPR-Cas9 with unique gRNAs. […] Two gRNAs with different target sequences were designed for each subunit (#1 and #2). Control gRNAs target luciferase gene. Data are presented as means±s.d. (n=3-5, biological replicates). ***P<0.001 by Student's t-test (FIG. 3B).
To identify the subunits of PP2A that are essential for the antitumor activity of iPAP1, CRISPR-Cas9 was used to establish a series of sublines of KOPT-K1 T-ALL cells, each lacking one of the 19 specific PP2A subunits (FIG.1A-FIG. 2), and to examine their sensitivity to iPAP1-induced growth inhibition.
With this panel of PP2A subunit knockout cells in hand, we analyzed the PP2A subunits required for growth suppression by SMAPs, another class of allosteric activators of PP2A (Gutierrez et al., J. Clin. Invest. 124:644-655 (2014); Sangodkar et al., J. Clin. Invest. 127:2081-2090 (2017)). […] Both the PPP2R5E and PPP2R2A regulatory subunits of PP2A were among the most highly expressed in a series of 16 different T-ALL cell lines (FIG. 5A). Thus, the assembly of structurally different heterotrimeric PP2A complexes induced with either iPAP1 or SMAP cannot be attributed to imbalances in cellular expression levels of individual PP2A subunits, but likely stems from differences in the allosteric alterations of the A subunit protein resulting from the binding of these two classes of small molecules, which have different chemical structures.

[7] = biological target: tubulin from porcine brain (Sus scrofa, UniProt P02550+P02554); test: Fluorescence-based tubulin polymerization assay; conditions: 3 μM
Description: Briefly, free tubulin (2 mg/mL) in buffer supplemented with 1 mM GTP and 15% glycerol was employed. Then, the test compounds were added to tubulin solution and changes in the fluorescence intensity (ex=370 nm, em=445 nm) were measured by kinetic reading at 37° C. using SpectraMax® M5 Microplate reader (Molecular Devices LLC).

KOPT-K1 cells [8] = test: Microtubule and chromatin staining of cytospins; format: cell-based, human; conditions: 0.001 and 0.0001 μM, 24 hours
[9] = 0.5 μM for three hours with 2 μM dopamine

T1 sequence (P14416 whole entry): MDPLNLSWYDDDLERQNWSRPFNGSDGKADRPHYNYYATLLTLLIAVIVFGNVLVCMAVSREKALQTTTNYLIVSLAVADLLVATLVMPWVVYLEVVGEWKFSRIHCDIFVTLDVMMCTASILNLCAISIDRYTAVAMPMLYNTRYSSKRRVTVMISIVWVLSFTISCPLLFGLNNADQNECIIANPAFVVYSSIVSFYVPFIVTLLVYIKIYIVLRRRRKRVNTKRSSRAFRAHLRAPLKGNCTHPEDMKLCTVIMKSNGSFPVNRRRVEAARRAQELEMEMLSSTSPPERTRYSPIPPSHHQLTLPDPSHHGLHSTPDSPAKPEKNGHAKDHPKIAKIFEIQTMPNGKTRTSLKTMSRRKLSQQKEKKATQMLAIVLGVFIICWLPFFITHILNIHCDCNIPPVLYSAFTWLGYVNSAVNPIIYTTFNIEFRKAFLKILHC
T2 sequence (P30153 2-589): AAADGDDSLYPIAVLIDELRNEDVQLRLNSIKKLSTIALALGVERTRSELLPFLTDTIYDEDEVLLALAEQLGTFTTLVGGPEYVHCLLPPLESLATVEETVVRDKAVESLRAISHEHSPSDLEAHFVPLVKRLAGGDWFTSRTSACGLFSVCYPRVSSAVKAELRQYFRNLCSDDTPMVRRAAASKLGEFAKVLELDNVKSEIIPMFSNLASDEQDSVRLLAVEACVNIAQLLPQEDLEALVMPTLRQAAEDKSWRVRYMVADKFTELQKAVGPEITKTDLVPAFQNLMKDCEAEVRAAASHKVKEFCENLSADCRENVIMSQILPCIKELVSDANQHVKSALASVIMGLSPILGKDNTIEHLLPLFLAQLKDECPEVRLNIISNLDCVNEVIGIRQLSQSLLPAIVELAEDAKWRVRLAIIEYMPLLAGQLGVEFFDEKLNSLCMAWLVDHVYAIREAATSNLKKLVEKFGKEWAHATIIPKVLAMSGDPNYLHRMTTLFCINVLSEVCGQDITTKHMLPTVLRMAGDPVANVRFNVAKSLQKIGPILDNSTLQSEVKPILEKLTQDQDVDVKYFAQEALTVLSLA
T2 sequence (P67775 whole entry): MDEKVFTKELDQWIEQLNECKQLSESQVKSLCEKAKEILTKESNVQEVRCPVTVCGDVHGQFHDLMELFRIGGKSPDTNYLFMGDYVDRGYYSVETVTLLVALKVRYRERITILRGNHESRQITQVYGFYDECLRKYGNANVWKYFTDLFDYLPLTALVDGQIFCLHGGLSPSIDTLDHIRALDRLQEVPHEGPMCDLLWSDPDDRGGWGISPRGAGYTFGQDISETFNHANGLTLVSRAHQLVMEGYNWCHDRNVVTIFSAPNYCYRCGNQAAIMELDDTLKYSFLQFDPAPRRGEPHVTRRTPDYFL
T2 sequence (Q16537 2-467): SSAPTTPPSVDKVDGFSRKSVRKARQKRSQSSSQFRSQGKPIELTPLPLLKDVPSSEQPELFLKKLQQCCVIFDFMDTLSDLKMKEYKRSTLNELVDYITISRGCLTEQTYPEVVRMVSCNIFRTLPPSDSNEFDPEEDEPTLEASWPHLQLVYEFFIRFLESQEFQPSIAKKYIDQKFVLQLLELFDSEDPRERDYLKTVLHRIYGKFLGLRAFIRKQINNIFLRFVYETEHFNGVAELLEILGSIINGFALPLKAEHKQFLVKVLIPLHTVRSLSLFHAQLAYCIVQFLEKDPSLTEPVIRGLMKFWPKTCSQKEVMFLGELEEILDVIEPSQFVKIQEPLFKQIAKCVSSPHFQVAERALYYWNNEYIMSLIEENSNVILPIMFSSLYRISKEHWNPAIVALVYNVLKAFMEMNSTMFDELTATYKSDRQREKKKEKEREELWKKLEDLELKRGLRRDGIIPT
tubulin from porcine brain, sequence (P02550 whole entry): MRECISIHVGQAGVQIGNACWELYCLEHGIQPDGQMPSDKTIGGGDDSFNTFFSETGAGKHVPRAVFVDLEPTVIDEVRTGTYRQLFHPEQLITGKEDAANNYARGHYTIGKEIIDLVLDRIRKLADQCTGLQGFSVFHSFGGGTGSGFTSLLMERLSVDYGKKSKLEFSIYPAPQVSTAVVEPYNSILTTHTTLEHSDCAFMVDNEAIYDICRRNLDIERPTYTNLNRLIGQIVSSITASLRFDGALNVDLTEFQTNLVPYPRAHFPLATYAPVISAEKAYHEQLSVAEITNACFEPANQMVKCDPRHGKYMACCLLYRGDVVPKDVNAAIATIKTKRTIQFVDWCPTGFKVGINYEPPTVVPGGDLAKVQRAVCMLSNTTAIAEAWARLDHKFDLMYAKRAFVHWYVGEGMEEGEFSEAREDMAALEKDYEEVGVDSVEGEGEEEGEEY
tubulin from porcine brain, sequence (P02554 whole entry): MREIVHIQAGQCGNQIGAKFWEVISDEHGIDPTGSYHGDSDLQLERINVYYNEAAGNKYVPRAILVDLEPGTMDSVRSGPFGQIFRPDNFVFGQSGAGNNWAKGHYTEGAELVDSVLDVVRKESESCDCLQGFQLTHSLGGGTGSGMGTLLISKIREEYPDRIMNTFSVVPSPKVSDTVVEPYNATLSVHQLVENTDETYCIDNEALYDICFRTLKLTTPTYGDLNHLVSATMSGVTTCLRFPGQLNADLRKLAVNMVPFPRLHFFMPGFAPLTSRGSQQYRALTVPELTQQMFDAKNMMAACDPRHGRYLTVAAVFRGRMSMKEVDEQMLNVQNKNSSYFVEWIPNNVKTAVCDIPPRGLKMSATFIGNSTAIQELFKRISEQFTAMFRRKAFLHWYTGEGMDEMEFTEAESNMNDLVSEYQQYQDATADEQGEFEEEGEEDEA

## C=C[C@@]1(C)CC(=O)[C@]2(O)[C@@]3(C)[C@@H](O)CCC(C)(C)[C@@H]3[C@H](O)[C@H](OC(C)=O)[C@@]2(C)O1 [forskolin, reference compound]
[1]; HEK-293T, 0.5 μM for three hours with 2 μM dopamine
  inhibition at 0.5 µM: ~30%

## CCN1CCCC1CNC(=O)c1cc(S(N)(=O)=O)ccc1OC (stereo not shown) [sulpiride, reference compound]
[1]
  inhibition of DRD2 signaling: strong inhibitors

## COc1ccc(C(=O)N2c3ccccc3Sc3ccc([N+](=O)[O-])cc32)cc1 [iPAP2]
KOPT-K1 cells [2]; Homo sapiens, KOPTK1, 72 h
  pIC50: ~6.00

## COc1ccc(C(=O)N2c3ccccc3Sc3cc(C#N)ccc32)cc1 [iPAP4]
PP2A [3]
  PP2A activation potential: relatively high PP2A activation potential compared to PPZ
[1]
  inhibition of DRD2 signaling: very low inhibition of DRD2 signaling
KOPT-K1 cells [2]
  pIC50: 7.40 to 7.52
KOPT-K1 cells [2]; Homo sapiens, KOPTK1, 72 h
  pIC50: ~7.52
KOPT-K1 cells [2]; KOPT-K1, 72 hours
  IC50 lower than PPZ: ~100 fold
  IC50 lower than iPAP1: ~10 fold

## Cc1ccccc1C(=O)N1c2ccccc2Sc2ccc(Cl)cc21 [iPAP5]
[1]; [9]
  inhibitory activities on DRD2: did not show inhibitory activities on DRD2

## O=c1[nH]c2ccccc2n1CCCN1CCC(n2c(=O)[nH]c3cc(Cl)ccc32)CC1 [domperidone, reference compound]
[1]
  inhibition of DRD2 signaling: strong inhibitors

## O=S(=O)(N[C@@H]1CCC[C@H](N2c3ccccc3Oc3ccccc32)[C@H]1O)c1ccc(OC(F)(F)F)cc1 [SMAP, reference compound]
PP2A subunits
  PP2A subunits co-immunoprecipitated with anti-PPP2CA antibody: trimeric complex nucleated by SMAP contains PPP2CA, PPP2R1A and PPP2R2A
PP2A [3]
  PP2A activation potential: much less potent than iPAP1, iPAP2, iPAP3 or iPAP4 in phosphatase activity
PP2A [4]
  phosphatase activity of PP2A relative to basal level: up to twice its basal level
KOPT-K1 cells [5]
  cell cycle status: arrested in G0/G1 phase
[6]
  PP2A subunits whose knockout gives resistance: resistant to SMAP treatment only when the PPP2R1A, PPP2CA or PPP2R2A subunit was disrupted
[1]; [9]
  inhibitory activities on DRD2: did not show inhibitory activities on DRD2
[1]
  inhibition of DRD2 signaling: lacked DRD2 inhibitory activity
KOPT-K1 cells [2]
  pIC50: ~5.30

## COc1ccc(C(=O)N2c3ccccc3Sc3ccc(C#N)cc32)cc1 [iPAP3]
KOPT-K1 cells [2]; Homo sapiens, KOPTK1, 72 h
  pIC50: ~6.52

## CC[C@]1(O)C[C@H]2CN(CCc3c([nH]c4ccccc34)[C@@](C(=O)OC)(c3cc4c(cc3OC)N(C=O)[C@H]3[C@@](O)(C(=O)OC)[C@H](OC(C)=O)[C@]5(CC)C=CCN6CC[C@]43[C@@H]65)C2)C1 [vincristine, reference compound]
[7]
  inhibition of tubulin polymerization: markedly inhibited tubulin polymerization
KOPT-K1 cells [8]
  mitotic and microtubule phenotype: without detectable microtubules

Reference: patent US20220062291A1, “COMPOSITIONS AND METHODS OF TREATING CANCERS BY ADMINISTERING A PHENOTHIAZINE-RELATED DRUG THAT ACTIVATES PROTEIN PHOSPHATASE 2A (PP2A) WITH REDUCED INHIBITORY ACTIVITY TARGETED TO THE DOPAMINE D2 RECEPTOR AND ACCOMPANYING TOXICITY” (DANA-FARBER CANCER INSTITUTE, INC., priority 2018, published 2022)
